Key:
[1] = tested on: patients with diabetic macular edema; assay: Change in intraocular pressure from baseline, Compound 1 BID at varying doses, 28 Day EOT (FIG. 1); format: in vivo, human; settings: doses greater than 15 mg BID
Description: The difference in IOP was determined at the end of the trial, which was 28 days after treatment began (28 Day EOT). Changes in IOP were determined both in the study eye and the fellow eye.

[2] = Intraocular pressure at Baseline and Months 1-3, Compound 1 with sham or RBZ, or placebo with RBZ (TABLE 1, FIG. 2); format: in vivo
Description: The difference in IOP was determined relative to a pre-treatment baseline (Base) at months 1, 2, and 3 (M1-M3). Intraocular pressure was determined in the study eye in millimeters of mercury (mmHg).
The difference in IOP was determined relative to a pre-treatment Baseline at Months 1, 2, and 3. Intraocular pressure was determined in the study eye/fellow eye in mmHg.

COC(=O)N[C@@H](Cc1ccccc1)C(=O)N[C@@H](Cc1ccc(NS(=O)(=O)O)cc1)c1csc(-c2cccs2)n1 [Compound 1]
effect on intraocular pressure (IOP) relative to pre-treatment baseline [1]: decreased IOP
IOP, fellow eye ([2]; Month 1): 14.5 mmHg
IOP, fellow eye ([2]; Month 2): 14.3 mmHg
IOP, fellow eye ([2]; Month 3): 14.0 mmHg
IOP, fellow eye ([2]; pre-treatment Baseline): 15.4 mmHg
IOP, study eye ([2]; Month 1): 14.8 mmHg
IOP, study eye ([2]; Month 2): 14.4 mmHg
IOP, study eye ([2]; Month 3): 14.3 mmHg
IOP, study eye ([2]; pre-treatment Baseline): 15.8 mmHg

Reference: patent US11413242B2, “Formulations of Tie-2 activators and methods of use thereof” (EyePoint Pharmaceuticals, Inc., priority 2019, dated 2022)
